Laboratory results as given in US20260224494A1, “MILVEXIAN PHARMACEUTICAL COMPOSITIONS” (BRISTOL-MYERS SQUIBB COMPANY, priority 2023, published 2026).
In brackets after ≈: the same amount, converted by molar mass. Like-named read-outs stand apart in the source and are kept apart here.

Experiments:
[1] = Solubility of milvexian forms in organic solvent systems; format: physicochemical; conditions: for solubility: organic solvent or mixture
Method: While heating of the feed solution is a viable solution for production, it is a more complex set-up and with risk of crashing out dissolved solids in case of cold spots and plant safety. Various solvent systems (See Table 11 below) were investigated with primary focus on solvent systems containing DCM due to its low boiling point and excellent solubilization properties.
Based on the data it was determined that 70/30 w/w % DCM/MeOH and 80/20 w/w % were promising solvent mixtures and more accurate solubility determination was carried out for 80/20 w/w % DCM/MeOH for both FORM A and P1.Acetone solvate at 20° C. with the results shown in Table 12 below.
P1.Acetone was the preferred crystalline form of milvexian for physical stability and manufacturability reasons. Based on the above, 80/20 w/w % DCM/MeOH solvent system was selected for development due to highly increase solubility over the 90/10 w/w % Acetone/Water solvent system.

[2] = Acetone/Water 90:10 w/w, cited from earlier work

With C[C@@H]1CCC[C@H](n2cnc(-c3cc(Cl)ccc3-n3cc(Cl)nn3)cc2=O)c2cc(ccn2)-c2c(cnn2C(F)F)NC1=O [Milvexian, (5R,9S)-9-(4-(5-chloro-2-(4-chloro-1H-1,2,3-triazol-1-yl)phenyl)-6-oxopyrimidin-1(6H)-yl)-21-(difluoromethvl)-5-methyl-21H-3-aza-1(4,2)-pyridina-2(5,4)-pyrazolacyclononaphan-4-one] the solubility ([1]; 30/70 DCM/MeOH, 20 °C, 30/70 DCM/MeOH, temperature 20, read-out: Solubility in mg/mL solution) was 16 mg/mL (≈ 25.5 mM), the solubility ([1]; 30/70 DCM/MeOH, 40 °C, 30/70 DCM/MeOH, temperature 40, read-out: Solubility in mg/mL solution) was 26 mg/mL (≈ 41.5 mM) and the Solubility description ([1]; 30/70 DCM/MeOH, temperature 20) was “Sparingly soluble”. The Solubility description ([1]; 30/70 DCM/MeOH, temperature 40) was “Sparingly soluble”, the solubility ([1]; 40/60 DCM/MeOH, 20 °C, 40/60 DCM/MeOH, temperature 20, read-out: Solubility in mg/mL solution) was 29 mg/mL (≈ 46.3 mM) and the solubility ([1]; 40/60 DCM/MeOH, 40 °C, 40/60 DCM/MeOH, temperature 40, read-out: Solubility in mg/mL solution) was 44 mg/mL (≈ 70.2 mM). For the same molecule, the Solubility description ([1]; 40/60 DCM/MeOH, temperature 20) was “Sparingly soluble”, the Solubility description ([1]; 40/60 DCM/MeOH, temperature 40) was “Soluble” and the solubility ([1]; 50/50 DCM/MeOH, 20 °C, 50/50 DCM/MeOH, temperature 20, read-out: Solubility in mg/mL solution) was 58 mg/mL (≈ 92.6 mM). The solubility ([1]; 50/50 DCM/MeOH, 40 °C, 50/50 DCM/MeOH, temperature 40, read-out: Solubility in mg/mL solution) was 77 mg/mL (≈ 123 mM), the Solubility description ([1]; 50/50 DCM/MeOH, temperature 20) was “Soluble” and the Solubility description ([1]; 50/50 DCM/MeOH, temperature 40) was “Soluble”. The solubility ([1]; 60/40 DCM/MeOH, 20 °C, 60/40 DCM/MeOH, temperature 20, read-out: Solubility in mg/mL solution) was 120 mg/mL (≈ 192 mM), the solubility ([1]; 60/40 DCM/MeOH, 40 °C, 60/40 DCM/MeOH, temperature 40, read-out: Solubility in mg/mL solution) was over 200 mg/mL and the Solubility description ([1]; 60/40 DCM/MeOH, temperature 20) was “Freely Soluble”. The Solubility description ([1]; 60/40 DCM/MeOH, temperature 40) was “Freely Soluble”, the solubility ([1]; 70/30 DCM/MeOH, 20 °C, 70/30 DCM/MeOH, temperature 20, read-out: Solubility in mg/mL solution) was over 200 mg/mL and the solubility ([1]; 70/30 DCM/MeOH, 40 °C, 70/30 DCM/MeOH, temperature 40, read-out: Solubility in mg/mL solution) was over 200 mg/mL. For the same molecule, the Solubility description ([1]; 70/30 DCM/MeOH, temperature 20) was “Freely Soluble”, the Solubility description ([1]; 70/30 DCM/MeOH, temperature 40) was “Freely Soluble” and the solubility ([1]; 80/20 DCM/MeOH, 20 °C, 80/20 DCM/MeOH, temperature 20, read-out: Solubility in mg/mL solution) was over 200 mg/mL. The solubility ([1]; 80/20 DCM/MeOH, 40 °C, 80/20 DCM/MeOH, temperature 40, read-out: Solubility in mg/mL solution) was over 200 mg/mL, the Solubility description ([1]; 80/20 DCM/MeOH, temperature 20) was “Freely Soluble” and the Solubility description ([1]; 80/20 DCM/MeOH, temperature 40) was “Freely Soluble”. For the same molecule, the solubility ([1]; 90/10 DCM/MeOH, 20 °C, 90/10 DCM/MeOH, temperature 20, read-out: Solubility in mg/mL solution) was over 200 mg/mL, the solubility ([1]; 90/10 DCM/MeOH, 40 °C, 90/10 DCM/MeOH, temperature 40, read-out: Solubility in mg/mL solution) was over 200 mg/mL and the Solubility description ([1]; 90/10 DCM/MeOH, temperature 20) was “Freely Soluble”. The Solubility description ([1]; 90/10 DCM/MeOH, temperature 40) was “Freely Soluble”, the solubility ([1]; 100% DCM, 20 °C, 100% DCM, temperature 20, read-out: Solubility in mg/mL solution) was 29 mg/mL (≈ 46.3 mM) and the solubility ([1]; 100% DCM, 40 °C, 100% DCM, temperature 40, read-out: Solubility in mg/mL solution) was 51 mg/mL (≈ 81.4 mM). For the same molecule, the Solubility description ([1]; 100% DCM, temperature 20) was “Sparingly soluble”, the Solubility description ([1]; 100% DCM, temperature 40) was “Soluble” and the solubility ([1]; 100% MeOH, 20 °C, 100% MeOH, temperature 20, read-out: Solubility in mg/mL solution) was 4.2 mg/mL (≈ 6.7 mM). For the same molecule, the solubility ([1]; 100% MeOH, 40 °C, 100% MeOH, temperature 40, read-out: Solubility in mg/mL solution) was 6.6 mg/mL (≈ 10.5 mM), the Solubility description ([1]; 100% MeOH, temperature 20) was “Slightly soluble” and the Solubility description ([1]; 100% MeOH, temperature 40) was “Slightly soluble”. For the same molecule, the solubility ([1]; acetone/water 90/10 w/w %, 20 °C, acetone/water (90/10 w/w %), room temperature, read-out: solubility) was 36 mg/mL (≈ 57.5 mM), the solubility ([1]; acetone/water 90/10 w/w %, 49 °C, acetone/water (90/10 w/w %), 49° C., read-out: solubility) was 70 mg/mL (≈ 112 mM) and the solubility ([2]; 20° C.) was 36 mg/mL (≈ 57.5 mM). The solubility ([2]; 50° C.) was 70 mg/mL (≈ 112 mM).
